Assay results reported in patent US20230203060A1 (GENFLEET THERAPEUTICS (SHANGHAI) INC., priority 2020, published 2023).

Assays:
[1] = tested on: A549 cells (KRAS G12S mutant); assay: Cell proliferation inhibition experiment, 3D spheroid, CellTiter-Glo, A549; type: cell-based, human; conditions: Homo sapiens, A549, 120 h, A549 (KRAS G12S mutant) 3D spheroid, 5 days with compound, CellTiter-Glo; read-out: A549 IC50
Outline: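 Spheroids grown overnight from 800 H358 or 400 A549 cells were treated for 5 days with serially diluted compound (3.16-fold, 0.1% DMSO, 2% FBS). ATP-based luminescence gave IC50.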

[2] = tested on: phosphorylated ERK downstream of KRAS G12C in MIA PaCa2 cells; assay: Cell p-ERK detection experiment (HTRF) in MIA PaCa2; type: cell-based, human; conditions: Homo sapiens, MIA PaCa-2, 2 h, MIA PaCa2 cells, 2 hours with compound, Advance ERK phospho-T202/Y204 HTRF kit; read-out: p-ERK IC50
Outline: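 KRAS G12C-mutant MIA PaCa2 cells (2.5E4 per well, overnight) exposed 2 h to a 3.16-fold compound dilution series at 0.1% DMSO. Lysates probed 4 h with HTRF antibodies to ERK phospho-T202/Y204; inhibition versus DMSO control and blank, IC50 by four-parameter fit.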

| SMILES | IC50 [1] [µM] | IC50 [2] [µM] |
| --- | --- | --- |
| C=CC(=O)N1CCN2C(=O)c3c(N4C[C@@H](N(C)C)CC4(C)C)nc(-c4c(F)ccc(F)c4O)c(Cl)c3OC[C@H]2C1 [Z475-1, (6aR)-8-acryloyl-4-chloro-3-(3,6-difluoro-2-hydroxyphenyl)-1-((S)-4-(dimethylamino)-2,2-dimethylpyrrolidin-1-yl)-6,6a,7,8,9,10-hexahydro-12H-pyrazino[2,1-c]pyrido[3,4-f][1,4]oxazepin-12-one] | 5.17 | 0.035 |
| C=CC(=O)N1CCN2C(=O)c3c(N4C[C@H](N5CC(F)(F)C5)CC4(C)C)nc(-c4ccccc4F)c(Cl)c3OC[C@H]2C1 (single isomer, unassigned) [Z525-1] | 2.84 | 1.28 |
| C=CC(=O)N1CCN2C(=O)c3c(N4C[C@@H](O)CC4(C)C)nc(-c4ccccc4F)c(F)c3OC[C@H]2C1 (single isomer, unassigned) [Z408-1] | 9.25 | 0.305 |
| C=CC(=O)N1CCN2C(=O)c3c(N4C[C@@H](N5CCN(C)CC5)CC4(C)C)nc(-c4c(O)cccc4F)c(Cl)c3OC[C@H]2C1 (single isomer, unassigned) [Z469-1] | 5.23 | 0.008 |
| C=CC(=O)N1CCN2C(=O)c3c(N4C[C@@H](C(=O)O)CC4(C)C)nc(-c4c(O)cccc4F)c(Cl)c3OC[C@H]2C1 (single isomer, unassigned) [Z458-1] | > 10 | 3.56 |
| C=CC(=O)N1CCN2C(=O)c3c(N4C[C@@H](N(C)C)CC4(C)C)nc(-c4ccccc4)c(Cl)c3OC[C@H]2C1 (single isomer, unassigned) [Z655-1] | 3.32 | 0.461 |
| C=CC(=O)N1CCN2C(=O)c3c(N4C[C@H](N(C)CCOC)CC4(C)C)nc(-c4ccccc4F)c(Cl)c3OC[C@H]2C1 (single isomer, unassigned) [Z406-1] | 2.12 | 0.073 |
| C=CC(=O)N1CCN2C(=O)c3c(N4C[C@H](N(C)CCO)CC4(C)C)nc(-c4ccccc4F)c(Cl)c3OC[C@H]2C1 (single isomer, unassigned) [Z658-2] | 4.72 | 0.18 |
| C=CC(=O)N1CCN2C(=O)c3c(N4C[C@H](N5CC(C#N)C5)CC4(C)C)nc(-c4ccccc4F)c(Cl)c3OC[C@H]2C1 (single isomer, unassigned) [Z637-1] | 2.97 | 1.12 |
| C=CC(=O)N1CCN2C(=O)c3c(N4C[C@@H](N5CC(F)(F)C5)CC4(C)C)nc(-c4ccccc4F)c(Cl)c3OC[C@H]2C1 (single isomer, unassigned) [Z525-2] | 5.74 | 0.226 |
| C=CC(=O)N1CCN2C(=O)c3c(N4C[C@@H](N(C)CCO)CC4(C)C)nc(-c4ccccc4F)c(Cl)c3OC[C@H]2C1 (single isomer, unassigned) [Z658-1] | 2.97 | 0.031 |
| C=CC(=O)N1CCN2C(=O)c3c(N4C[C@H](N5CCN(C)CC5)CC4(C)C)nc(-c4c(O)cccc4F)c(Cl)c3OC[C@H]2C1 (single isomer, unassigned) [Z469-2] | 8.46 | 0.03 |
| C=CC(=O)N1CCN2C(=O)c3c(N4CC(N5CCOCC5)CC4(C)C)nc(-c4ccccc4F)c(Cl)c3OC[C@H]2C1 (single isomer, unassigned) [Z468-1] | 3.28 | 0.082 |
| C=CC(=O)N1CCN2C(=O)c3c(N4C[C@H](N5CC(F)C5)CC4(C)C)nc(-c4ccccc4F)c(F)c3OC[C@H]2C1 [Z654-2, (R)-8-acryloyl-4-fluoro-1-((R)-4-(3-fluoroazetidin-1-yl)-2,2-dimethylpyrrolidin-1-yl)-3-(2-fluorophenyl)-6,6a,7,8,9,10-hexahydro-12H-pyrazino[2,1-c]pyrido[3,4-f][1,4]oxazepin-12-one] | 8.58 | 0.167 |
| C=CC(=O)N1CCN2C(=O)c3c(N4C[C@@H](N5CCN(C)CC5)C[C@@H]4C)nc(-c4ccccc4F)c(Cl)c3OC[C@H]2C1 [Z470-2] | 9.61 | 0.024 |

Next, values leading:

| IC50 [1] [µM] | IC50 [2] [µM] | SMILES |
| --- | --- | --- |
| 6.71 | 0.09 | C=CC(=O)N1CCN2C(=O)c3c(N4CC(N5CCN(C)CC5)CC4(C)C)nc(-c4ccccc4F)c(F)c3OC[C@H]2C1 (stereo partly drawn) [Z474, (6aR)-8-acryloyl-1-(2,2-dimethyl-4-(4-methylpiperazin-1-yl)pyrrolidin-1-yl)-4-fluoro-3-(2-fluorophenyl)-6,6a,7,8,9,10-hexahydro-12H-pyrazino[2,1-c]pyrido[3,4-f][1,4]oxazepin-12-one] |
| > 5 | 0.028 | C=CC(=O)N1CCN2C(=O)c3c(N4CC(O)CC4(C)C)nc(-c4c(O)cccc4F)c(Cl)c3OC[C@H]2C1 (stereo partly drawn) [Z50, (6aR)-8-amyloyl-4-chloro-3-(2-fluoro-6-hydroxyphenyl)-1-(4-hydroxy-2,2-dimethylpyrrolidin-1-yl)-6,6a,7,8,9,10-hexahydro-12H-pyrazino[2,1-c]pyrido[3,4-f][1,4]oxazepin-12-one] |
| > 30 | 0.145 | C=CC(=O)N1CCN2C(=O)c3c(N4CCOC(C)(C)C4)nc(-c4c(O)cccc4F)c(Cl)c3OC[C@H]2C1 [Z37, (6aR)-8-acryloyl-4-chloro-1-(2,2-dimethylmorpholino)-3-(2-fluoro-6-hydroxyphenyl)-6,6a,7,8,9,10-hexahydro-12H-pyrazino[2,1-c]pyrido[3,4-f][1,4]oxazepin-12-one] |
| 9.73 | 0.077 | C=CC(=O)N1CCN2C(=O)c3c(N4CCN(C)C[C@@H]4C)nc(-c4c(F)cccc4C(F)F)c(Cl)c3OC[C@H]2C1 [Z456, (6aR)-8-acryloyl-4-chloro-3-(2-(difluoromethyl)-6-fluorophenyl)-1-((S)-2,4-dimethylpiperazin-1-yl)-6,6a,7,8,9,10-hexahydro-12H-pyrazino[2,1-c]pyrido[3,4-f][1,4]oxazepin-12-one] |
| 1.22 | 0.322 | C=CC(=O)N1CCN2C(=O)c3c(NC45CC(C4)C5)nc(-c4c(O)cccc4F)c(Cl)c3OC[C@H]2C1 [Z41, (6aR)-8-acryloyl-1-(bicyclo [1.1.1]pentan-1-ylamino)-4-chloro-3-(2-fluoro-6-hydroxyphenyl)-6,6a,7,8,9,10-hexahydro-12H-pyrazino[2,1-c]pyrido[3,4-f][1,4]oxazepin-12-one] |
| 5.72 | 1.48 | C=CC(=O)N1CCN2C(=O)c3c(N4CCN(C)C[C@@H]4C)nc(-c4c(F)cccc4OC)c(F)c3OC[C@H]2C1 [Z451, (6aR)-8-acryloyl-1-((S)-2,4-dimethylpiperazin-1-yl)-4-fluoro-3-(2-fluoro-6-methoxyphenyl)-6,6 a,7,8,9,10-hexahydro-12H-pyrazino[2,1-c]pyrido[3,4-f][1,4]oxazepin-12 (6 aH)-one] |
| 7.25 | 0.433 | C=CC(=O)N1CCN2C(=O)c3c(N4C[C@H](N(C)CC(F)(F)F)CC4(C)C)nc(-c4ccccc4F)c(Cl)c3OC[C@H]2C1 (single isomer, unassigned) [Z493] |
| 9.19 | 0.011 | C=CC(=O)N1CCN2C(=O)c3c(N4CCC(OC)C4(C)C)nc(-c4c(N)cccc4F)c(Cl)c3OC[C@H]2C1 (stereo partly drawn) [Z506, (6aR)-8-acryloyl-3-(2-amino-6-fluorophenyl)-4-chloro-1-(3-methoxy-2,2-dimethylpyrrolidin-1-yl)-6,6a,7,8,9,10-hexahydro-12H-pyrazino[2,1-c]pyrido[3,4-f][1,4]oxazepin-12-one] |
| 2.13 | 0.024 | C=CC(=O)N1CCN2C(=O)c3c(N4CC(N5CCN(C)CC5)CC4(C)C)nc(-c4ccccc4F)c(Cl)c3OC[C@H]2C1 (stereo partly drawn) [Z454, (6aR)-8-acryloyl-4-chloro-1-(2,2-dimethyl-4-(4-methylpiperazin-1-yl)pyrrolidin-1-yl)-3-(2-fluorophenyl)-6,6a,7,8,9,10-hexahydro-12H-pyrazino[2,1-c]pyrido[3,4-f][1,4]oxazepin-12-one] |
| 9.31 | 0.184 | C=CC(=O)N1CCN2C(=O)c3c(N4CCN(C)[C@@H](C)[C@@H]4C)nc(-c4ccccc4F)c(Cl)c3OC[C@H]2C1 [Z653, (R)-8-acryloyl-4-chloro-3-(2-fluorophenyl)-1-((2S,3S)-2,3,4-trimethylpiperazin-1-yl)-6,6a,7,8,9,10-hexahydro-12H-pyrazino[2,1-c]pyrido[3,4-f][1,4]oxazepin-12 (6aH)-one] |
| > 7 | 0.129 | C=CC(=O)N1CCN2C(=O)c3c(N4CCCC45CC5)nc(-c4c(O)cccc4F)c(Cl)c3OC[C@H]2C1 [Z56, (6aR)-8-acryloyl-4-chloro-3-(2-fluoro-6-hydroxyphenyl)-1-(4-azaspiro[2.4]heptan-4-yl)-6,6a,7,8,9,10-hexahydro-12H-pyrazino[2,1-c]pyrido[3,4-f][1,4]oxazepin-12-one] |
| > 5 | 0.073 | C=CC(=O)N1CCN2C(=O)c3c(N4CCN(C)C[C@@H]4C)nc(-c4c(O)cccc4F)c(Cl)c3OC[C@H]2C1 [Z51, (6aR)-8-acryloyl-4-chloro-1-((S)-2,4-dimethylpiperazin-1-yl)-3-(2-fluoro-6-hydroxyphenyl)-6,6a,7,8,9,10-hexahydro-12H-pyrazino[2,1-c]pyrido[3,4-f][1,4]oxazepin-12-one] |
| 3.05 | 0.14 | C=CC(=O)N1CCN2C(=O)c3c(N4CCC5CC54)nc(-c4c(O)cccc4F)c(Cl)c3OC[C@H]2C1 (stereo partly drawn) [Z39, (6aR)-8-acryloyl-1-(2-azabicyclo[3.1.0]hexart-2-yl)-4-chloro-3-(2-fluoro-6-hydroxyphenyl)-6,6a,7,8,9,10-hexahydro-12H-pyrazino[2,1-c]pyrido[3,4-f][1,4]oxazepin-12-one] |
